One experiment relates to K562. Kind of experiment: Cytotoxicity against human K562 cells. It counts as functional.
The subject of the next experiment is Escherichia coli. Kind of experiment: Induction of cross linking in DS pUC18 plasmid.
Experiment [1] is described as follows: Cytotoxicity against human NCI60 cells. It counts as functional.

For the compound `C=C1C[C@H]2C=Nc3cc(OCCCOc4cc5c(cc4OC)C(=O)N4CC(=C)C[C@H]4C=N5)c(OC)cc3C(=O)N2C1` [SJG-136], the GI50 (commonly the concentration at which growth is held to half of that of the control) in the experiment with K562 came to 8 nM. The compound further came in with an XL50 with Escherichia coli of 0.06 µM. Also, in experiment [1], the GI50 worked out at 7 nM and the TGI (as a rule, the concentration at which net growth stops) is 87 nM.

In the experiment with K562, `COc1cc2c(cc1OCCCNC(=O)c1cc(NC(=O)c3cc(NC(=O)c4cc(NC(=O)CCCOc5cc6c(cc5OC)C(=O)N5CCC[C@H]5C=N6)cn4C)cn3C)cn1C)N=C[C@@H]1CCCN1C2=O` gave a GI50 of 37 nM. The compound further gave an XL50 with Escherichia coli of 0.23 µM. In addition, in experiment [1], it took 14 nM to inhibit growth by half (GI50); the LC50 (in general, the concentration that kills 50% of the test population) came out at 22900 nM; the TGI turned out to be 490 nM.

These data come from ChEMBL document CHEMBL1143224, “An asymmetric C8/C8'-tripyrrole-linked sequence-selective pyrrolo[2,1-c][1,4]benzodiazepine (PBD) dimer DNA interstrand cross-linking agent spanning 11 DNA base pairs” (2008).
